# According to paper PMC8674134, “Safety and efficacy of avapritinib in advanced systemic mastocytosis: the phase 1 EXPLORER trial” (Nature Medicine, 2021):
# System: advanced systemic mastocytosis (AdvSM)
# Experiment: Centrally adjudicated response by mIWG-MRT-ECNM criteria (ORR, best response, time to response, C-finding improvement)
# Type: in vivo, human
# Excerpt: The primary endpoints were MTD, RP2D and assessment of safety. Secondary endpoints included the ORR based on measurable C-finding responses per mIWG-MRT-ECNM criteria, which require 12-week confirmation of response. Responses in C-findings were centrally adjudicated by a Response Adjudication Committee (RAC) comprising a subset of study investigators (see below for further details and a list of RAC members). ORR included: CR or CRh (including complete resolution of all C-findings, elimination of marrow mast cell aggregates and serum tryptase <20 ng ml^−1); PR (resolution of ≥1 C-finding and ≥50% reduction in marrow mast cells and serum tryptase); and clinical improvement (resolution of ≥1 C-finding).
# The safety population included all enrolled patients and was used to report AEs and PROs (in those who completed the questionnaire). The dose-determining population included all patients in a cohort in part 1 who received ≥21 prescribed avapritinib doses in C1 and completed follow-up through C1, or experienced DLT. The determination of the MTD and RP2D were based on the dose-determining population. […] The AdvSM safety population was also used to report AEs and OS. […] The response-evaluable population was used to report adjudicated response rates and PFS. The PK population comprised all patients with sufficient plasma concentration–time data to reliably estimate the PK parameters of avapritinib.
# ORR was defined as the proportion of patients with a confirmed best response of CR, CRh, PR or clinical improvement by mIWG-MRT-ECNM consensus criteria. Time to CR/CRh/PR was defined as the time from the start of treatment to the time a CR/CRh/PR by mIWG-MRT-ECNM was first met. DOR was defined as the time from first documented response to the date of first documented progressive disease/loss of response or death due to any cause, whichever occurred first. OS was defined as the time from the start of treatment to the date of death. PFS was defined as the time from the start of treatment to the date of first documented progressive disease or death due to any cause, whichever occurred first. Progressive disease was defined per mIWG-MRT-ECNM criteria as worsening of ≥1 baseline C-finding confirmed for at least 4 weeks, or progression to acute myeloid leukemia.
# Primary ORR analysis was based on RAC-adjudicated responses in the response-evaluable population. ORR was estimated using frequency, percentage and two-sided 95% CIs based on the exact binomial distribution (Clopper–Pearson). Statistical testing on binomial proportion against a null of 28% was performed using one-sided α = 0.025. Wald test P value was presented. CR + CRh + PR rate was summarized similarly as ORR. Statistical testing on binomial proportion against a null of 17% was performed using one-sided α = 0.025.
# [1] = 53 response-evaluable patients, mIWG-MRT-ECNM
# [2] = Prior midostaurin exposure (n = 17)
# [3] = of 2 patients with C-finding at baseline, response-evaluable population (n = 53)
# [4] = of 18 patients with C-finding at baseline, response-evaluable population (n = 53)
# [5] = response-evaluable population (n = 53)
compound,measurement,setting,value
Cn1cc(-c2cc3c(N4CCN(c5ncc([C@@](C)(N)c6ccc(F)cc6)cn5)CC4)ncnn3c2)cn1 [avapritinib],Clinical improvement rate,53 response-evaluable patients,6%
same,Partial remission (PR) rate,53 response-evaluable patients,34%
same,CR or CRh rate,[1],36%
same,Overall response rate (ORR; CR/CRh/PR/CI),[1],75%
same,Best response CI (clinical improvement),ASM (n = 3),0 n (%)
same,Best response CR,ASM (n = 3),0 n (%)
same,Best response CR or CRh,ASM (n = 3),2 (67) n (%)
same,Best response CRh,ASM (n = 3),2 (67) n (%)
same,Best response NE (not evaluable),ASM (n = 3),0 n (%)
same,Best response PD,ASM (n = 3),0 n (%)
same,Best response PR,ASM (n = 3),1 (33) n (%)
same,Best response SD,ASM (n = 3),0 n (%)
same,ORR (CR + CRh + PR + CI),ASM (n = 3),3 (100) n (%)
same,Best response CI (clinical improvement),All AdvSM (n = 53),3 (6) n (%)
same,Best response CR,All AdvSM (n = 53),8 (15) n (%)
same,Best response CR or CRh,All AdvSM (n = 53),19 (36) n (%)
same,Best response CRh,All AdvSM (n = 53),11 (21) n (%)
same,Best response NE (not evaluable),All AdvSM (n = 53),1 (2) n (%)
same,Best response PD,All AdvSM (n = 53),0 n (%)
same,Best response PR,All AdvSM (n = 53),18 (34) n (%)
same,Best response SD,All AdvSM (n = 53),12 (23) n (%)
same,ORR (CR + CRh + PR + CI),All AdvSM (n = 53),40 (75) n (%)
same,Best response CI (clinical improvement),Any prior therapy (n = 32),2 (6) n (%)
same,Best response CR,Any prior therapy (n = 32),4 (13) n (%)
same,Best response CR or CRh,Any prior therapy (n = 32),9 (28) n (%)
same,Best response CRh,Any prior therapy (n = 32),5 (16) n (%)
same,Best response NE (not evaluable),Any prior therapy (n = 32),1 (3) n (%)
same,Best response PD,Any prior therapy (n = 32),0 n (%)
same,Best response PR,Any prior therapy (n = 32),11 (34) n (%)
same,Best response SD,Any prior therapy (n = 32),9 (28) n (%)
same,ORR (CR + CRh + PR + CI),Any prior therapy (n = 32),22 (69) n (%)
same,Best response CI (clinical improvement),MCL (n = 13),2 (15) n (%)
same,Best response CR,MCL (n = 13),3 (23) n (%)
same,Best response CR or CRh,MCL (n = 13),3 (23) n (%)
same,Best response CRh,MCL (n = 13),0 n (%)
same,Best response NE (not evaluable),MCL (n = 13),0 n (%)
same,Best response PD,MCL (n = 13),0 n (%)
same,Best response PR,MCL (n = 13),4 (31) n (%)
same,Best response SD,MCL (n = 13),4 (31) n (%)
same,ORR (CR + CRh + PR + CI),MCL (n = 13),9 (69) n (%)
same,Best response CI (clinical improvement),Midostaurin naïve (n = 36),2 (6) n (%)
same,Best response CR,Midostaurin naïve (n = 36),6 (17) n (%)
same,Best response CR or CRh,Midostaurin naïve (n = 36),16 (44) n (%)
same,Best response CRh,Midostaurin naïve (n = 36),10 (28) n (%)
same,Best response NE (not evaluable),Midostaurin naïve (n = 36),0 n (%)
same,Best response PD,Midostaurin naïve (n = 36),0 n (%)
same,Best response PR,Midostaurin naïve (n = 36),12 (33) n (%)
same,Best response SD,Midostaurin naïve (n = 36),6 (17) n (%)
same,ORR (CR + CRh + PR + CI),Midostaurin naïve (n = 36),30 (83) n (%)
same,Best response CI (clinical improvement),No prior therapy (n = 21),1 (5) n (%)
same,Best response CR,No prior therapy (n = 21),4 (19) n (%)
same,Best response CR or CRh,No prior therapy (n = 21),10 (48) n (%)
same,Best response CRh,No prior therapy (n = 21),6 (29) n (%)
same,Best response NE (not evaluable),No prior therapy (n = 21),0 n (%)
same,Best response PD,No prior therapy (n = 21),0 n (%)
same,Best response PR,No prior therapy (n = 21),7 (33) n (%)
same,Best response SD,No prior therapy (n = 21),3 (14) n (%)
same,ORR (CR + CRh + PR + CI),No prior therapy (n = 21),18 (86) n (%)
same,Best response CI (clinical improvement),[2],1 (6) n (%)
same,Best response CR,[2],2 (12) n (%)
same,Best response CR or CRh,[2],3 (18) n (%)
same,Best response CRh,[2],1 (6) n (%)
same,Best response NE (not evaluable),[2],1 (6) n (%)
same,Best response PD,[2],0 n (%)
same,Best response PR,[2],6 (35) n (%)
same,Best response SD,[2],6 (35) n (%)
same,ORR (CR + CRh + PR + CI),[2],10 (59) n (%)
same,Best response CI (clinical improvement),SM-AHN (n = 37),1 (3) n (%)
same,Best response CR,SM-AHN (n = 37),5 (14) n (%)
same,Best response CR or CRh,SM-AHN (n = 37),14 (38) n (%)
same,Best response CRh,SM-AHN (n = 37),9 (24) n (%)
same,Best response NE (not evaluable),SM-AHN (n = 37),1 (3) n (%)
same,Best response PD,SM-AHN (n = 37),0 n (%)
same,Best response PR,SM-AHN (n = 37),13 (35) n (%)
same,Best response SD,SM-AHN (n = 37),8 (22) n (%)
same,ORR (CR + CRh + PR + CI),SM-AHN (n = 37),28 (76) n (%)
same,Median time to achieve CR/CRh,all starting doses,9 months
same,Median time to achieve PR or better (CR/CRh/PR),"all starting doses, range, 2–27 months",2 months
same,CR rate,midostaurin-naïve patients (6/36),17%
same,CRh rate,midostaurin-naïve patients (10/36),28%
same,CR/CRh rate,midostaurin-naïve patients (16/36),44%
same,ORR,midostaurin-naïve patients (30/36),83%
same,"Patients with clinical improvement in C-finding: thrombocytopenia, transfusion dependent","of 1 patient with C-finding at baseline, response-evaluable population (n = 53)",0 (0) n (%)
same,"Patients with clinical improvement in C-finding: anemia, transfusion dependent",[3],1 (50) n (%)
same,Patients with clinical improvement in C-finding: pleural effusions,[3],2 (100) n (%)
same,Patients with clinical improvement in C-finding: neutropenia,"of 3 patients with C-finding at baseline, response-evaluable population (n = 53)",0 (0) n (%)
same,Patients with clinical improvement in C-finding: direct bilirubin >1.5 × ULN,"of 6 patients with C-finding at baseline, response-evaluable population (n = 53)",1 (17) n (%)
same,Patients with clinical improvement in C-finding: hypoalbuminemia,"of 7 patients with C-finding at baseline, response-evaluable population (n = 53)",4 (57) n (%)
same,Patients with clinical improvement in C-finding: ascites,"of 10 patients with C-finding at baseline, response-evaluable population (n = 53)",4 (40) n (%)
same,"Patients with clinical improvement in C-finding: anemia, transfusion independent","of 15 patients with C-finding at baseline, response-evaluable population (n = 53)",3 (20) n (%)
same,Patients with clinical improvement in C-finding: ALP >2.5 × ULN,[4],12 (67) n (%)
same,"Patients with clinical improvement in C-finding: thrombocytopenia, transfusion independent",[4],4 (22) n (%)
same,Patients with clinical improvement in C-finding: splenomegaly ≥5 cm,"of 28 patients with C-finding at baseline, response-evaluable population (n = 53)",24 (86) n (%)
same,ORR,patients with co-mutations in S/A/R genes,74%
same,ORR,patients with prior midostaurin exposure (10/17),59%
same,ORR,patients without S/A/R co-mutations,77%
same,CRh rate,prior midostaurin exposure (1/17),6%
same,CR rate,prior midostaurin exposure (2/17),12%
same,CR/CRh rate,prior midostaurin exposure (3/17),18%
same,Median time to clinical improvement: ALP >2.5 × ULN,[5],2.9 months
same,"Median time to clinical improvement: anemia, transfusion dependent",[5],0.3 months
same,"Median time to clinical improvement: anemia, transfusion independent",[5],3.7 months
same,Median time to clinical improvement: ascites,[5],7.4 months
same,Median time to clinical improvement: direct bilirubin >1.5 × ULN,[5],8.3 months
same,Median time to clinical improvement: hypoalbuminemia,[5],3.3 months
same,Median time to clinical improvement: pleural effusions,[5],1.9 months
same,Median time to clinical improvement: splenomegaly ≥5 cm,[5],1.9 months
same,"Median time to clinical improvement: thrombocytopenia, transfusion independent",[5],3.1 months
same,Median time to PR or better (CR/CRh/PR),"starting doses of 200, 300 or 400 mg (≥200 mg QD)",2 months
